# Assays:
# CYP3A4 = target: T1, CYP3A4 (Homo sapiens, UniProt P08684); test: CYP enzyme inhibition test, Vivid CYP3A4 Red Screening Kit; type: in vitro ADME; details: for inhibitory effect on CYP3A4: conclusion in words
# T1 construct: purchased
# Procedure: (§1) Experimental Example 6: CYP Enzyme Inhibition Test CYP450 is the most important enzyme system in drug metabolism. The enzymes involved in metabolism interact with drugs, and the most important ones are CYP1A2, CYP2D6 and CYP3A4. P450-Glo™ CYP1A2 Screening System, Vivid® CYP2D6 Cyan Screening Kit and Vivid® CYP3A4 Red Screening Kit were used in this test, and the inhibitory effects of the compounds on CYP1A2, CYP2D6 and CYP3A4 were determined according to the instructions of the kit.
# THP1-defNLRP3 cells = test: Agonistic effect on the expression of IL-1β in NLRP3 deficient THP1 cells (THP1-defNLRP3) after PMA-induced differentiation (HTRF); type: cell-based, human; details: Homo sapiens, THP-1; IL-1β level, PMA-differentiated NLRP3 deficient THP1 cells, 6 hours; highest test concentration 30 μM; read-out: hNLRP3 EC50 (μM) (THP-1defNLRP3)
# Outline: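 PMA-differentiated (1 μM, 24 h) NLRP3-deficient THP1 macrophages, 1×10^5 cells/well in RPMI 1640 with 2% heat-inactivated FBS, treated with compound for 6 h at 37 °C. Supernatant IL-1β measured by HTRF. EC50 from four-parameter variable-slope fit.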
# CYP2D6 = target: T2, CYP2D6 (Homo sapiens, UniProt P10635); test: CYP enzyme inhibition test, Vivid CYP2D6 Cyan Screening Kit; type: in vitro ADME; details: for inhibitory effect on CYP2D6: conclusion in words
# T2 construct: purchased
# Procedure: as §1
# hTLR8 = target: T3, hTLR8 (Homo sapiens, UniProt Q9NR97); test: Agonistic effect on hTLR8, HEK-Blue hTLR8 cells, alkaline phosphatase secretion; type: cell-based; details: 16 hours
# T3 construct: host or cells: HEK-Blue hTLR8 cells
# T3 sequence (Q9NR97 27-1041): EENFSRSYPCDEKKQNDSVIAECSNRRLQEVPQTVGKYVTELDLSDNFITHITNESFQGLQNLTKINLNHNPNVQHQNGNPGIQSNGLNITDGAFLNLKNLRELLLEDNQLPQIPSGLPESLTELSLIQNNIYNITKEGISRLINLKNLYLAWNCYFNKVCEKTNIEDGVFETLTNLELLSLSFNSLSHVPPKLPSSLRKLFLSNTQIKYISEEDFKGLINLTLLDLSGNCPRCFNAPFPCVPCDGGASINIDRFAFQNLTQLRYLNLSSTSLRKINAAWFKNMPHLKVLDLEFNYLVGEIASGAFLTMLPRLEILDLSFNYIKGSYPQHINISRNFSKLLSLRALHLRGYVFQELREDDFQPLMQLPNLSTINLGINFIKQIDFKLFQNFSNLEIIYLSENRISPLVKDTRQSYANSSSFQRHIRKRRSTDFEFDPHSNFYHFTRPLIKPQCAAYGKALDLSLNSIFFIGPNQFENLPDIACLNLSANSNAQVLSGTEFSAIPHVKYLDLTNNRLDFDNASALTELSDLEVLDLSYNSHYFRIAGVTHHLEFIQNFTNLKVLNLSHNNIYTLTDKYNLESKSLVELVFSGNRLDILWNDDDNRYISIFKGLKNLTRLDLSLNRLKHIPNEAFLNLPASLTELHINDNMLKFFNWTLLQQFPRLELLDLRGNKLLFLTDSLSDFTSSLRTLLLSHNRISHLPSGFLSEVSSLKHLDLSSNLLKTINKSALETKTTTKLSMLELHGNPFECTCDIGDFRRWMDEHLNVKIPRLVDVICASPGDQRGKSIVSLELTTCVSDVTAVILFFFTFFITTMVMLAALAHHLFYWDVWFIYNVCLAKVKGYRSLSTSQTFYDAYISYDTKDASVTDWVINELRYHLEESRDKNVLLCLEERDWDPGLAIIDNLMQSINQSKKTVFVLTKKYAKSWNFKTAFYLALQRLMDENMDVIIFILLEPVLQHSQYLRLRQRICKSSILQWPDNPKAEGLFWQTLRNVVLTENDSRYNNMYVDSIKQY
# Outline: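 HEK-Blue hTLR8 reporter cells were treated with compound (diluted from 10 mM DMSO stock) for 16 h at 37 °C in DMEM/10% FBS. Secreted alkaline phosphatase in supernatant was detected with QUANTI-Blue after 3 h at 37 °C, read at OD620. EC50 came from a four-parameter variable-slope fit.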
# T1 sequence (P08684 whole entry): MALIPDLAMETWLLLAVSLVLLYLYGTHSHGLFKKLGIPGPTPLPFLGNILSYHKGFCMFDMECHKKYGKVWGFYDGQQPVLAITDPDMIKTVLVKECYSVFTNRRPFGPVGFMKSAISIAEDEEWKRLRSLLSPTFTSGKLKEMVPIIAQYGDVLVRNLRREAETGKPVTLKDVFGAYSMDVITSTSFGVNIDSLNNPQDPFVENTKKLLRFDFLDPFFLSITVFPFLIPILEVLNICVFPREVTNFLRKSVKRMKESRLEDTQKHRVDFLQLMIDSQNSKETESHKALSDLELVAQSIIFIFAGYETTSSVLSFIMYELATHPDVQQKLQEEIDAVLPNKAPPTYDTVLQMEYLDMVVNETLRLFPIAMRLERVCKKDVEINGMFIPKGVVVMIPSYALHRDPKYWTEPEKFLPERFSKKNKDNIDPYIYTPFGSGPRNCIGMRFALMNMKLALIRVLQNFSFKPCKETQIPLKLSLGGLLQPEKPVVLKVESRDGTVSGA
# T2 sequence (P10635 whole entry): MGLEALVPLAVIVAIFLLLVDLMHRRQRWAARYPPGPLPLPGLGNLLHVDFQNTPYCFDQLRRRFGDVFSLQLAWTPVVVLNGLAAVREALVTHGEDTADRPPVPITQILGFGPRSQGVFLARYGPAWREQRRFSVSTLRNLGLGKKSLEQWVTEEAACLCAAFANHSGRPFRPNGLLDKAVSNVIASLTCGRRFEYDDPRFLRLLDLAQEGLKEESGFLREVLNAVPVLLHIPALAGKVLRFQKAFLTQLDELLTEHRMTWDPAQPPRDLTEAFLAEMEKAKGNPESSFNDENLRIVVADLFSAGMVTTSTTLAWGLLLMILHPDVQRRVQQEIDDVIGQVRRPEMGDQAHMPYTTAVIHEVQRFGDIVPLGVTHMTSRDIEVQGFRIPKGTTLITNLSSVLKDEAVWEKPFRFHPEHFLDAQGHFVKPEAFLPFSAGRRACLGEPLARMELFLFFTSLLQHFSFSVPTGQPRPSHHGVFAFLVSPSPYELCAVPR
IC50 (CYP3A4),inhibitory effect on CYP3A4 (CYP3A4),EC50 (THP1-defNLRP3 cells),IC50 (CYP2D6),inhibitory effect on CYP2D6 (CYP2D6),EC50 (hTLR8),SMILES
> 10 µM,no apparent inhibitory effects,> 30 µM,> 10 µM,no apparent inhibitory effects,> 100 µM,"C[C@@H]1CN(CCNc2cc(N)nc3cc(-c4ccn[nH]4)sc23)C[C@@H](C)O1 [Compound 124, N^7-(2-((2R,6R)-2,6-dimethylmorpholino)ethyl)-2-(1H-pyrazol-5-yl)thieno[3,2-b]pyridine-5,7-diamine]"
> 10 µM,no apparent inhibitory effects,> 30 µM,> 10 µM,no apparent inhibitory effects,> 100 µM,"C[C@@H](CCO)Nc1cc(N)nc2cc(-c3ccn[nH]3)sc12 [Compound 125, (S)-3-((5-amino-2-(1H-pyrazol-5-yl)thieno[3,2-b]pyridin-7-yl)amino)butanol]"
